Our source for the Ki values is patent US9650334B2 (AbbVie Deutschland GmbH & Co. KG, priority 2013, dated 2017).

One assay concerns the target T1, human GlyT1c transporter (Homo sapiens, UniProt P48067).
T1 sequence (P48067 1-706): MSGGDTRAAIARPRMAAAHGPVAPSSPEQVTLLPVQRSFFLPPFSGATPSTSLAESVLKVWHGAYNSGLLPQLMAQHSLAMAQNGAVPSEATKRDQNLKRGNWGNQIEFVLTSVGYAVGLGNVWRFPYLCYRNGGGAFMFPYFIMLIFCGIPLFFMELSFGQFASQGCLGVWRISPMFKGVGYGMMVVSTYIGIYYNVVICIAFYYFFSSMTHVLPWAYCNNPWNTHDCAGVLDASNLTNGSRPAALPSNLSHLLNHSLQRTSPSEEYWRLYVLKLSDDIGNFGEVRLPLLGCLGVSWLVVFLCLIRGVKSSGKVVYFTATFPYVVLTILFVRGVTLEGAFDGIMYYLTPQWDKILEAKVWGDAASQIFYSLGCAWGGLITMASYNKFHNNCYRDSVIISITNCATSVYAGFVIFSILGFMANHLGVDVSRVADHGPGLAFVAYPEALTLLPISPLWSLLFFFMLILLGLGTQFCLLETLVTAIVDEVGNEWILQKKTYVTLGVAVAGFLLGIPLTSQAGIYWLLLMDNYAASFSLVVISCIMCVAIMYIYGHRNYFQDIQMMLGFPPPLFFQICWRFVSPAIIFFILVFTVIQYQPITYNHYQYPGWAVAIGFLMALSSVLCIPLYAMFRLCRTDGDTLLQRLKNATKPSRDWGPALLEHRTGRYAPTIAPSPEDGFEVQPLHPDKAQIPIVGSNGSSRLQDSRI
Nature of the assay: Radioligand binding assays using recombinant CHO cell membranes expressing human GlyT1. The following applies: Ki, radioligand binding to human GlyT1c transporter-expressing CHO cell membranes.
Usually Ki stands for a measure of affinity in units of concentration, obtained from inhibition or displacement. For `Cn1cnc(S(=O)(=O)N2C[C@@H](Nc3ccc(OC(F)(F)F)c(C#N)c3)[C@H](c3ccccc3)C2)c1` (racemic) [Example 102, 5-({trans-1-[(1-methyl-1H-imidazol-4-yl)sulfonyl]-4-phenylpyrrolidin-3-yl}amino)-2-(trifluoromethoxy)benzonitrile], the Ki is at most 1000 nM.
As to `CCS(=O)(=O)N1C[C@@H](NC(=O)c2ccc(C(F)(F)F)cc2)[C@H](c2ccccc2)C1` (relative stereo) [Example 122, N-[trans-1-(ethylsulfonyl)-4-phenylpyrrolidin-3-yl]-4-(trifluoromethyl)benzamide], the Ki is at most 10000 nM.
The same measure, in the same setting: next, `Cc1cccc(CN[C@@H]2CN(S(=O)(=O)c3cn(C)cn3)C[C@H]2c2ccc(F)cc2)c1` (relative stereo) [Example 154, trans-4-(4-fluorophenyl)-N-(3-methylbenzyl)-1-[(1-methyl-1H-imidazol-4-yl)sulfonyl]pyrrolidin-3-amine]: at most 100 nM; `Cn1cnc(S(=O)(=O)N2C[C@@H](C(=O)c3cccc(F)c3)[C@H](c3ccc(F)cc3)C2)c1` (relative stereo) [Example 301]: at most 1000 nM.
For the compound `Cn1cnc(S(=O)(=O)N2C[C@@H](c3ccccc3)[C@](C)(NCc3ccc(C(F)(F)F)cc3Cl)C2)c1` (relative stereo) [Example 356, Trans-N-[2-chloro-4-(trifluoromethyl)benzyl]-3-methyl-1-[(1-methyl-1H-imidazol-4-yl)sulfonyl]-4-phenylpyrrolidin-3-amine], the Ki is at most 100 nM.
As to `Cn1cnc(S(=O)(=O)N2C[C@@H](c3ccccc3)[C@](C)(Nc3cc(C(F)(F)F)ccn3)C2)c1` (relative stereo) [Example 388, N-{Trans-3-methyl-1-[(1-methyl-1H-imidazol-4-yl)sulfonyl]-4-phenylpyrrolidin-3-yl}-4-(trifluoromethyl)pyridin-2-amine], the Ki was at most 100 nM.
Still for that read-out and setting: with `Cn1cnc(S(=O)(=O)N2C[C@@H](c3ccccc3)[C@](CO)(NCc3ccc(C(F)(F)F)cc3)C2)c1` (relative stereo) [Example 401] the figure was at most 10000 nM; with `Cn1cnc(S(=O)(=O)N2C[C@@H](NCc3ccc(C(F)(F)F)cc3Cl)[C@H](c3ncccc3F)C2)c1` (relative stereo) [Example 761, Trans-N-[2-chloro-4-(trifluoromethyl)benzyl]-4-(3-fluoropyridin-2-yl)-1-[(1-methyl-1H-imidazol-4-yl)sulfonyl]pyrrolidin-3-amine], at most 100 nM; with `Cn1cnc(S(=O)(=O)N2C[C@@H](Nc3ccc(F)c(F)c3)[C@H](c3ncccc3F)C2)c1` (relative stereo) [Example 766, Trans-N-(3,4-difluorophenyl)-4-(3-fluoropyridin-2-yl)-1-[(1-methyl-1H-imidazol-4-yl)sulfonyl]pyrrolidin-3-amine], at most 1000 nM.

Still in this assay, the particulars now being: radioligand binding to human GlyT1c transporter-expressing CHO cell membranes.
As for “2,2-difluoro-N-{(3R,4S)-4-(4-fluorophenyl)-1-[(1-methyl-1H-imidazol-4-yl)sulfonyl]pyrrolidin-3-yl}pentanamide [Example 700]”, the Ki is at most 10000 nM.
As to “4-({(3R,4S)-1-[(1-methyl-1H-imidazol-4-yl)sulfonyl]-4-phenylpyrrolidin-3-yl}amino)-2,3-dihydro-1H-isoindol-1-one [Example 421]”, the Ki is at most 10000 nM.
Consider “6-(cyclohexyloxy)-N-{(3R,4S)-4-(4-fluorophenyl)-1-[(1-methyl-1H-imidazol-4-yl)sulfonyl]pyrrolidin-3-yl}pyrimidin-4-amine [Example 721]”, for which the Ki was at most 100 nM.
Still for that read-out and setting: next, “6-butoxy-N-{(3R,4S)-4-(4-fluorophenyl)-1-[(1-methyl-1H-imidazol-4-yl)sulfonyl]pyrrolidin-3-yl}pyrimidin-4-amine [Example 717]”: at most 100 nM.
